Source: US20160309708A1, “POLYCARBOXYLIC ACID ESTER ALKYL DERIVED FROM BRANCHED AND STRAIGHT ALCOHOL OF PLANT ORIGIN, AND USE OF AN ALKYL ESTER IN AGROCHEMICAL FORMULATIONS” (priority 2013, published 2016)

Assay: Solubility limit of active ingredients in the alkyl esters of polycarboxylic acids at 25° C.
Assay type: physicochemical
Conditions: under agitation, solvent: alkyl esters of polycarboxylic acids

Row | Molecule | solubility limit in alkyl esters of polycarboxylic acids of this invention
1 | Cc1c(COC(=O)[C@@H]2[C@H](/C=C(\Cl)C(F)(F)F)C2(C)C)cccc1-c1ccccc1 (racemic) [BIFENTRIN, Bifenthrin] | 702 GRAMS PER LITER
2 | CCOP(=S)(OCC)Oc1nc(Cl)c(Cl)cc1Cl [CHLORPYRIFOS, Chlorpyrifos] | 900 GRAMS PER LITER
3 | CCCC1COC(Cn2cncn2)(c2ccc(Cl)cc2Cl)O1 (centres unmarked) [PROPICONAZOLE, Propiconazole] | 1568 GRAMS PER LITER
4 | CC(C)(C)C(O)(CCc1ccc(Cl)cc1)Cn1cncn1 (centres unmarked) [TEBUCONAZOLE, Tebuconazole] | 240 GRAMS PER LITER
5 | Abamectin | 116 GRAMS PER LITER
